Measured values from article PMC8426393, “Interactions of anti-COVID-19 drug candidates with hepatic transporters may cause liver toxicity and affect pharmacokinetics” (Scientific Reports, 2021).
“Also recorded” adds a separate entry of the source. Like-named read-outs stand apart in the source and are kept apart here.

Key:
OATP1B3 = target: T1, OATP1B3 (Homo sapiens, UniProt Q9NPD5); assay: OATP1B3-dependent pyranine uptake in overexpressing A431 cells; assay type: cell-based; conditions: for OATP1B3 Type of effect: A431 cells
T1 construct: expressed in transfected cells; host or cells: A431 cells (ATCC)
T1 sequence (Q9NPD5 1-702): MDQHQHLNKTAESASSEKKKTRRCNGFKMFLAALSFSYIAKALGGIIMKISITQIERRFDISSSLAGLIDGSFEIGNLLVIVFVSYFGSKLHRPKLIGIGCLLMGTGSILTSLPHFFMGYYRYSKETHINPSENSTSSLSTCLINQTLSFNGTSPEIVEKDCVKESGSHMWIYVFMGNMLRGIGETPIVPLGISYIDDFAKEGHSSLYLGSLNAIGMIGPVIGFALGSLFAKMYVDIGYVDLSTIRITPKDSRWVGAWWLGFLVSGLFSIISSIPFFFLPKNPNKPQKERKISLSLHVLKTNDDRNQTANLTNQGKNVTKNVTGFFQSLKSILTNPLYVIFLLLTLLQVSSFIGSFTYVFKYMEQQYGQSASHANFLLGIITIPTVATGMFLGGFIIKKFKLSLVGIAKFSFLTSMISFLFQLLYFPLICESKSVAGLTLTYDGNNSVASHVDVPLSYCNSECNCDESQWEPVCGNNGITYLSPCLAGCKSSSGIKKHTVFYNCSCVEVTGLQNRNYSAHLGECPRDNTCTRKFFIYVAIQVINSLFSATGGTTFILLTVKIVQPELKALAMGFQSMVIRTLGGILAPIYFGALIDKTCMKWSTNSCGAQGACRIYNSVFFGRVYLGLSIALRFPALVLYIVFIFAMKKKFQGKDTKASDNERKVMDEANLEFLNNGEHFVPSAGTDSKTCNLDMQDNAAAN

ABCG2/BCRP = test system: ABCG2/BCRP; design: method as in Telbisz et al., 2021; conditions: vesicular transporter assay, measured previously; ref Telbisz et al., 2021; cited from earlier work
ABCB1/Pgp = test system: ABCB1/Pgp; design: method as in Telbisz et al., 2021; conditions: vesicular transporter assay, measured previously; ref Telbisz et al., 2021; cited from earlier work
ABCB11/BSEP = target: T2, ABCB11/BSEP (Homo sapiens, UniProt O95342); assay: BSEP vesicular transport: ATP- and glyburide-sensitive taurocholate uptake into inverted HEK-293 membrane vesicles; assay type: biochemical; conditions: for ABCB11/BSEP Type of effect: HEK-293 vesicles; for concentration at which BSEP inhibition is effective: taurocholate transport
T2 construct: purchased Solvo Biotechnology (Budapest, Hungary); host or cells: HEK-293 cells
T2 sequence (O95342 whole entry): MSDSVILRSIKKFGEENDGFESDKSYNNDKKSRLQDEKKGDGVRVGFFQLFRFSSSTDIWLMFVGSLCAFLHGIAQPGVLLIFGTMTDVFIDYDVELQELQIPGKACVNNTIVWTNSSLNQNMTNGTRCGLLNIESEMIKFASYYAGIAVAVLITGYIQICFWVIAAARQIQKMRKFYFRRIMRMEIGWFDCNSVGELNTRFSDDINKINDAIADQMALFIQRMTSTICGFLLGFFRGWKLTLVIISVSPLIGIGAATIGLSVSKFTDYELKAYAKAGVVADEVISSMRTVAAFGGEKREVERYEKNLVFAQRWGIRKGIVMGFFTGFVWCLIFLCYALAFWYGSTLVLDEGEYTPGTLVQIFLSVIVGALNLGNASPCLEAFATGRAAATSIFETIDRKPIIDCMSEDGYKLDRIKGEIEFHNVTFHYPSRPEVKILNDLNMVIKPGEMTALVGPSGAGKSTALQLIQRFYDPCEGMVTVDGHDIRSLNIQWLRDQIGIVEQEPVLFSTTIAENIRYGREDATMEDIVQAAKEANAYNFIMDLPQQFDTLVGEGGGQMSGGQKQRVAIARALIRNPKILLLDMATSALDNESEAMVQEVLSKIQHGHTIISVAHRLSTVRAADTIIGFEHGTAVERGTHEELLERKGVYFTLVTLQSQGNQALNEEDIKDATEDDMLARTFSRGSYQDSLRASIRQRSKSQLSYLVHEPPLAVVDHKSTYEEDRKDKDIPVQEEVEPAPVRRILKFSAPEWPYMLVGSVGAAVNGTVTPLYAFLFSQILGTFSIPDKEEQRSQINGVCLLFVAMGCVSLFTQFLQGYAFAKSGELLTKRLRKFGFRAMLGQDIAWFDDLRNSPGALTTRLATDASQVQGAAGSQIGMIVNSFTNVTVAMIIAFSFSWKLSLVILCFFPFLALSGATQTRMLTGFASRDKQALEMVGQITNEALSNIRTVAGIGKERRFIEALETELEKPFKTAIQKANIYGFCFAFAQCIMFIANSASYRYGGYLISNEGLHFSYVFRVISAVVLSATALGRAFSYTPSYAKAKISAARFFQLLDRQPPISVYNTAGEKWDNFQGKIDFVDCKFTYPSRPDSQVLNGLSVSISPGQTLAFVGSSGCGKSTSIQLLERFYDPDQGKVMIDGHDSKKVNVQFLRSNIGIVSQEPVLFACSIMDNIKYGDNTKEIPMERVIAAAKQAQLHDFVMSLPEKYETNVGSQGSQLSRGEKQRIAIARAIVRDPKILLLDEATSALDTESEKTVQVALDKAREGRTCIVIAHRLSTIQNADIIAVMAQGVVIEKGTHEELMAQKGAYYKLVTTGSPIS

MATE1/SLC47A1 = target: T3, MATE1/SLC47A1 (Homo sapiens, UniProt Q96FL8); assay: MATE1-dependent metformin uptake in MATE1-overexpressing MDCKII cells; assay type: cell-based; conditions: for MATE1/SLC47A1 Type of effect: metformin 10 µM, 10 min, 37 °C, MDCKII cells
T3 construct: expressed in transfected cells; host or cells: MDCKII cells, lentiviral transduction
T3 sequence (Q96FL8 1-570): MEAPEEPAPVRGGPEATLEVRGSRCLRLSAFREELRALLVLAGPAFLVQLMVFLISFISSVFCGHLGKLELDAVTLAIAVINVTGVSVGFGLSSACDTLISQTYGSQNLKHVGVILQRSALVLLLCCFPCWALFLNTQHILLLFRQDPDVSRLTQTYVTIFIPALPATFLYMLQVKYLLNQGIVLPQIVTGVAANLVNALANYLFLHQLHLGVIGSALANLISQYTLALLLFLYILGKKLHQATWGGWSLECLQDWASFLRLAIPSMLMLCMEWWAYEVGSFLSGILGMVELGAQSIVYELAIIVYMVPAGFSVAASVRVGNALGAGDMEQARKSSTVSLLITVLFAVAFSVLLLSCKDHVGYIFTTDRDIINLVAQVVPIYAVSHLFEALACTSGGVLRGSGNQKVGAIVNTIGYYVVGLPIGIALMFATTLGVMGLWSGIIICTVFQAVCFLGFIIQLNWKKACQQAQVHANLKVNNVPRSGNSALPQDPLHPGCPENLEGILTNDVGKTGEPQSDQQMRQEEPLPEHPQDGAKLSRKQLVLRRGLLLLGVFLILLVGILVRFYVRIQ

OATP1B1 = target: T4, OATP1B1 (Homo sapiens, UniProt Q9Y6L6); assay: OATP1B1-dependent pyranine uptake in overexpressing A431 cells; assay type: cell-based; conditions: for OATP1B1 Type of effect: A431 cells
T4 construct: expressed in transfected cells; host or cells: A431 cells (ATCC)
T4 sequence (Q9Y6L6 1-691): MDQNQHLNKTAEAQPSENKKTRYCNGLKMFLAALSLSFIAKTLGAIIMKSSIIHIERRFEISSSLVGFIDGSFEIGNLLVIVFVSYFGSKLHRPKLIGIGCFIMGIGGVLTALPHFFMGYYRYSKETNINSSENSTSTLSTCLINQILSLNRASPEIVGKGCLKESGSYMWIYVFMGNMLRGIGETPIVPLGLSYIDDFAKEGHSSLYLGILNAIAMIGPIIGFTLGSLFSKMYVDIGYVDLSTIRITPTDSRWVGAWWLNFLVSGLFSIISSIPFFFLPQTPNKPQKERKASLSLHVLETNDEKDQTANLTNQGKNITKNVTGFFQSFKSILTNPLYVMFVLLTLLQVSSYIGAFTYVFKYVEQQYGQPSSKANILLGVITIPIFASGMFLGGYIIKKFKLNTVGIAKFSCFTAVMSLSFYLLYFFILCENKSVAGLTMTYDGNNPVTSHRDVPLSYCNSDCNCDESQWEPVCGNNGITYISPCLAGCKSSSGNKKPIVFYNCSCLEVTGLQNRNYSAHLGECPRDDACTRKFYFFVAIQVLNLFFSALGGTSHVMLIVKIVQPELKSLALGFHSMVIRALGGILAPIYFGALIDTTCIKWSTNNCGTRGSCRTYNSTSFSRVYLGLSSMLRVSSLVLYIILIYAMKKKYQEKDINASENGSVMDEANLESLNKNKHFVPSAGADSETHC

[1] = taurocholate 2 µM, 37 °C, 10 min

SMILES | IC50 (OATP1B3) [nM] | ABCG2/BCRP type of effect (ABCG2/BCRP) | IC50 (ABCG2/BCRP) [µM] | ABCB1/Pgp Type of effect (ABCB1/Pgp) | IC50 (ABCB1/Pgp) [nM] | IC50 (ABCB11/BSEP) [µM] | ABCB11/BSEP Type of effect (ABCB11/BSEP; [1]) | IC50 (MATE1/SLC47A1) [µM] | MATE1/SLC47A1 Type of effect (MATE1/SLC47A1) | IC50 (OATP1B1) [nM] | OATP1B3 R value (OATP1B3; DDI estimate, cut off 1.1, 165 µg/kg IVE dose, peak plasma 46 ng/ml) | IC50 (OATP1B3; approximate IC50, pyranine 20 µM, 30 min, 37 °C) [nM] | OATP1B3 Type of effect (OATP1B3; pyranine 20 µM, 30 min, 37 °C) | IC50 (ABCB11/BSEP; approximate IC50, taurocholate 2 µM, 37 °C, 10 min) [µM] | concentration at which BSEP inhibition is effective (ABCB11/BSEP) | IC50 (OATP1B1; approximate IC50, pyranine 10 µM, 15 min, 37 °C) [nM] | OATP1B1 Type of effect (OATP1B1; pyranine 10 µM, 15 min, 37 °C) | inhibition at 10 min, 50 µM (ABCB11/BSEP; human, at 50 µM) [%]
Cc1cccc(C)c1OCC(=O)N[C@@H](Cc1ccccc1)[C@@H](O)C[C@H](Cc1ccccc1)NC(=O)[C@H](C(C)C)N1CCCNC1=O [LOP, lopinavir] | 2600 | inh | 4.2 | inh | 600 | 7.8 | strongly inhibited TC transport at low concentrations and inh | 7.7 | strong inhibitory action and inh | 1100 |  |  |  |  |  |  |  | 
CCC(C)C1OC2(CCC1C)CC1CC(CC=C(C)C(OC3CC(OC)C(OC4CC(OC)C(O)C(C)O4)C(C)O3)C(C)C=CC=C3COC4C(O)C(C)=CC(C(=O)O1)C34O)O2 (centres unmarked) [IVE, ivermectin] |  | inh | 1.1 | inh | 300 |  | inh |  | practically no inhibition; also recorded: No effect |  | 1.07 | 1400 | inh | ≥ 30 | above 20 µM | ≥ 20000 | inh | 
CCC(CC)COC(=O)[C@H](C)N[P@](=O)(OC[C@H]1O[C@@](C#N)(c2ccc3c(N)ncnn23)[C@H](O)[C@@H]1O)Oc1ccccc1 [REM, remdesivir] | 4300 | inh | > 50 | inh | > 20000 | ≥ 40 | inh | 2.3 | strong inhibitory action and inh | 2900 |  |  | inh |  | above 20 µM |  | inh | 40 to 50
NC(=O)c1nc(F)c[nH]c1=O [FAV, favipiravir] |  |  |  |  |  |  | did not modify BSEP-mediated TC transport |  | practically no inhibition |  |  |  | did not modify OATP functionality |  |  |  | did not modify OATP functionality | 
